Results as given in US20250092017A1, “2-PIPERIDYL OR 2-PYRAZOLYL SUBSTITUTED PYRIMIDINE COMPOUND SERVING AS EGFR INHIBITOR” (SUZHOU PUHE BIOPHARMA CO., LTD., priority 2022, published 2025).
Where two headings read alike, the source gives them in different places.

Key:
Type in all cases: cell-based
Ba/F3-FL-EGFR = molecular target: T1, Ba/F3-FL-EGFR (Homo sapiens, UniProt P00533); test: CellTiter-Glo proliferation, Ba/F3-FL-EGFR; conditions: 72 hours, read-out: Ba/F3-FL-EGFR IC50/nM
T1 construct: FL read as full length
T1 sequence (P00533 whole entry, change not shown): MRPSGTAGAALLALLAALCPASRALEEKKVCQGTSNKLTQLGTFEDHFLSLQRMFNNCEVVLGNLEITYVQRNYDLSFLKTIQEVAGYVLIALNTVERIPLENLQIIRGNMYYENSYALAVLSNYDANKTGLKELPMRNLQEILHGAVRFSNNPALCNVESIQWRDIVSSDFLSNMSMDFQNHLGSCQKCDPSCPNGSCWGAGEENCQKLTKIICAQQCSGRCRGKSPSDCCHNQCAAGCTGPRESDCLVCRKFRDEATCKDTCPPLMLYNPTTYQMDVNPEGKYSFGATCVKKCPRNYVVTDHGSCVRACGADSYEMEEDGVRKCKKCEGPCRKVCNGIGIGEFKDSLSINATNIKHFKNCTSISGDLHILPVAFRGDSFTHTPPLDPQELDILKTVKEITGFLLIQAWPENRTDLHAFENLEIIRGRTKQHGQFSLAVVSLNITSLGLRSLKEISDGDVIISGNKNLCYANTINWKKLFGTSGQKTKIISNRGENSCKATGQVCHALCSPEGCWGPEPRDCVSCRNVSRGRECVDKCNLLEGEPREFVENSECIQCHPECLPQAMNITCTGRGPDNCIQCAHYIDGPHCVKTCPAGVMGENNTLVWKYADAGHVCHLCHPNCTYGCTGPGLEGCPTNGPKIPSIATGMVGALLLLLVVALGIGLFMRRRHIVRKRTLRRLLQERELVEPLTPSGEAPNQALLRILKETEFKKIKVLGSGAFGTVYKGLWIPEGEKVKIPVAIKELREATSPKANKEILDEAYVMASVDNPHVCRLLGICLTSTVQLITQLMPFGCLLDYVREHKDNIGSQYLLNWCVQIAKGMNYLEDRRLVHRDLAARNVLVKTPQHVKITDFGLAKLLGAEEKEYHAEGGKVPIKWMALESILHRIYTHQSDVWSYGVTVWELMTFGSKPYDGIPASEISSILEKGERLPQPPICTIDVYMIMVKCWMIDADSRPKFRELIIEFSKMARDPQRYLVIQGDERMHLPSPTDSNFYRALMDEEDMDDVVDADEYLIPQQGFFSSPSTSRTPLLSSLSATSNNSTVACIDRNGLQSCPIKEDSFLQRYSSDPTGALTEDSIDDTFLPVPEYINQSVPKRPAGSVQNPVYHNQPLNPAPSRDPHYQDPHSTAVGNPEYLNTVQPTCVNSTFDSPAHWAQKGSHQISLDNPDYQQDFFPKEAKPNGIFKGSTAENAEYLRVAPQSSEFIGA
Experimental: (§1) Promega CellTiter-Glo reagent was used to detect the effects of small molecule inhibitors on the proliferation of five Ba/F3 cell lines (Ba/F3-FL-EGFR, Ba/F3-FL-EGFR-L858R, Ba/F3-FL-EGFR-L858R-T790M-C797S, Ba/F3-TEL-EGFR-L858R-C797S and Ba/F3-FL-EGFR-del19-C797S).
(§2) The cell lines were cultured in an incubator at 37° C. and 5% CO2. Cells were passaged regularly and cells in the logarithmic phase were used for plating. 95 μL of cell suspension was added to each well of the cell plate, and culture medium without cells (containing 0.1% DMSO) was added to the Min control wells. Substance addition for compound detection cell plate: 5 μL of 20× compound working solution was added to the cell culture plate as shown in the table below. 50 μL of DMSO-cell culture medium mixture was added to the Max control, with the final DMSO concentration of 0.1%. 5 μL of DMSO-cell culture medium mixture was added to the Max control. The final DMSO concentration was 0.1%.
(§3) The compounds to be tested were added as per the table below
(§4) Cell viability was detected by CellTiter-Glo luminescence assay. Data analysis:
(§5) The cell proliferation inhibition rate (Inhibition Rate) data was processed using the following formula: […]
(§6) wherein: RLUDrug represents the relative luminescence unit of the cells with the addition of drug, RLUMin represents the luminescence unit of the culture medium, and RLUMax represents the relative luminescence unit of the cells with the addition of DMSO.
(§7) The inhibition rates corresponding to different concentrations of compounds were calculated in EXCEL, and then the inhibition rate curve was plotted using GraphPad Prism software and related parameters including the maximum and minimum inhibition rates of cells and IC50 values were calculated.

[1] = molecular target: T2, Ba/F3-TEL-EGFR-L858R-C797S (Homo sapiens, UniProt P00533, C797S/L858R, cells depend on it); test: CellTiter-Glo proliferation, Ba/F3-TEL-EGFR-L858R-C797S; conditions: 72 hours, read-out: Ba/F3-TEL-EGFR-L858R-C797S IC50/nM
T2 construct: fused on or other part: N-terminal TEL (ETV6) oligomerising part fused to the EGFR intracellular/kinase part; P41212 (Transcription factor ETV6)
T2 sequence (P00533 whole entry C797S/L858R, the tested form may be a part): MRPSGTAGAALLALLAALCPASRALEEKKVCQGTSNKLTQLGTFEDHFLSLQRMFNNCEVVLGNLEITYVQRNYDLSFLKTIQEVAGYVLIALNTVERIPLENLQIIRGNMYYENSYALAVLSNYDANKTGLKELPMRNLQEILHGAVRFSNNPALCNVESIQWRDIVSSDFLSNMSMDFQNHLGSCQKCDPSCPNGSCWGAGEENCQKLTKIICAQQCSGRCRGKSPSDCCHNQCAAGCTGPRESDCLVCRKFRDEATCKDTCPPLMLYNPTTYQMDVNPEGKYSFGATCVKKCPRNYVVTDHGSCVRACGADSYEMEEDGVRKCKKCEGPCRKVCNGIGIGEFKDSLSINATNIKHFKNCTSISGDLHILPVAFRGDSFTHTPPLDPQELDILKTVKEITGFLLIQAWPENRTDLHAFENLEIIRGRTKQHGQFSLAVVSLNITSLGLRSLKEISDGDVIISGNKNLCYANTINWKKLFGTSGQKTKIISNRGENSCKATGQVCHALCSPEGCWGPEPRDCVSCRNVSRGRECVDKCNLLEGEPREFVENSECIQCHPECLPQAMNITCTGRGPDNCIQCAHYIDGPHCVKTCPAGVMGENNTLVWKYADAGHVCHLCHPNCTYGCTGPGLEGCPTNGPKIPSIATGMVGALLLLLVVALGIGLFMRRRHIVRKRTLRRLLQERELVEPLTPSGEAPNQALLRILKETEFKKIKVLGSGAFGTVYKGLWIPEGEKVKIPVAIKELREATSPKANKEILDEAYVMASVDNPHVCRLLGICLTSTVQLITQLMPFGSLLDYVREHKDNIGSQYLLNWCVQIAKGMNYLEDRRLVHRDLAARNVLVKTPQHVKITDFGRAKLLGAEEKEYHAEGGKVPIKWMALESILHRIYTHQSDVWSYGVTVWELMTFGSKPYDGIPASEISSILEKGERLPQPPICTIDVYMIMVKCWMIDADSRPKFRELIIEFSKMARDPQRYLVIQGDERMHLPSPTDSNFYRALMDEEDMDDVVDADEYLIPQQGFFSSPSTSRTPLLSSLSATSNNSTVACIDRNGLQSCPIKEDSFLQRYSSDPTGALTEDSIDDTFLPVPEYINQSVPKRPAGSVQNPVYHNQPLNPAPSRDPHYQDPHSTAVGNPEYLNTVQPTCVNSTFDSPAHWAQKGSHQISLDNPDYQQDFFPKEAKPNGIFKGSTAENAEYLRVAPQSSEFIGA
Experimental: as §1, §2, §3, §4, §5, §6, §7

[2] = molecular target: Ba/F3-FL-EGFR-L858R-T790M-C797S (Homo sapiens, UniProt P00533, T790M/C797S/L858R, cells depend on it); test: CellTiter-Glo proliferation, Ba/F3-FL-EGFR-L858R-T790M-C797S; conditions: 72 hours, read-out: Ba/F3-FL-EGFR-L858R-T790M-C797S IC50/nM
Chain of Ba/F3-FL-EGFR-L858R-T790M-C797S (P00533 whole entry T790M/C797S/L858R): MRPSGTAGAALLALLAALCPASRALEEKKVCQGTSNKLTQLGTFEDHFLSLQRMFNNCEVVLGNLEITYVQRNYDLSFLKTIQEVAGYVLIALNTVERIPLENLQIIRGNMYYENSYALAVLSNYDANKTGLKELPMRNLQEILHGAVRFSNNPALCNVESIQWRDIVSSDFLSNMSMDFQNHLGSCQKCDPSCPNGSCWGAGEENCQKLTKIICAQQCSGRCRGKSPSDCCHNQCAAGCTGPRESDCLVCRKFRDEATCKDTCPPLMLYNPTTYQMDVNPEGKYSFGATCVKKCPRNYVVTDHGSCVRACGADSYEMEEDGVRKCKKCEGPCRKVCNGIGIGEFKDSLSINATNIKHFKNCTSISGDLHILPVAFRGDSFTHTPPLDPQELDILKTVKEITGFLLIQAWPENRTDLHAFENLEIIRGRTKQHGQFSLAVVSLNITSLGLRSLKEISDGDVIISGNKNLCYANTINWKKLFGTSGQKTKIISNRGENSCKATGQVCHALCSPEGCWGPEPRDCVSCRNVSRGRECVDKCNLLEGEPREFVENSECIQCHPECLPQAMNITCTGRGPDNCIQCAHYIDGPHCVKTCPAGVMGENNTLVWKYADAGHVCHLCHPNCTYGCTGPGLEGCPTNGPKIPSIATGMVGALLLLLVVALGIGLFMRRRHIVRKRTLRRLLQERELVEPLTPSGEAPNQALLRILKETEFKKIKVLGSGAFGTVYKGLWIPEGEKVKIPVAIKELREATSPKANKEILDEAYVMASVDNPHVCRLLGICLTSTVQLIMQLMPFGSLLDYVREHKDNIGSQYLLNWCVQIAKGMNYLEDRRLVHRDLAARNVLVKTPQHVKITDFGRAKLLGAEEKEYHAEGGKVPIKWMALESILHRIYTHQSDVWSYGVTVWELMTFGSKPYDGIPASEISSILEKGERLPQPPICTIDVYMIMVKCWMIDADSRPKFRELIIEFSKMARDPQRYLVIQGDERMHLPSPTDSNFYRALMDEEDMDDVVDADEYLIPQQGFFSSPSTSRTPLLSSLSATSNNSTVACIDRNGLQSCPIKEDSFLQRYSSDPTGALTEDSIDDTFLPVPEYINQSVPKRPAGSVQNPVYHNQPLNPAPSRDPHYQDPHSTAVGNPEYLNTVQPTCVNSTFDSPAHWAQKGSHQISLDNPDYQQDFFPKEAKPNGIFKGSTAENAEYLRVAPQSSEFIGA
Experimental: as §1, §2, §3, §4, §5, §6, §7

[3] = test system: Ba/F3-FL-EGFR-del19-C797S; test: CellTiter-Glo proliferation, Ba/F3-FL-EGFR-del19-C797S; conditions: proliferation, 72 hours, CellTiter-Glo, read-out: Ba/F3-FL-EGFR-del19-C797S IC50/nM
Experimental: as §1, §2, §3, §4, §5, §6, §7

Ba/F3-FL-EGFR-L858R = Ba/F3-FL-EGFR-L858R (Homo sapiens, UniProt P00533, L858R, cells depend on it); test: CellTiter-Glo proliferation, Ba/F3-FL-EGFR-L858R; conditions: 72 hours, read-out: Ba/F3-FL-EGFR-L858R IC50/nM
Chain of Ba/F3-FL-EGFR-L858R (P00533 whole entry L858R): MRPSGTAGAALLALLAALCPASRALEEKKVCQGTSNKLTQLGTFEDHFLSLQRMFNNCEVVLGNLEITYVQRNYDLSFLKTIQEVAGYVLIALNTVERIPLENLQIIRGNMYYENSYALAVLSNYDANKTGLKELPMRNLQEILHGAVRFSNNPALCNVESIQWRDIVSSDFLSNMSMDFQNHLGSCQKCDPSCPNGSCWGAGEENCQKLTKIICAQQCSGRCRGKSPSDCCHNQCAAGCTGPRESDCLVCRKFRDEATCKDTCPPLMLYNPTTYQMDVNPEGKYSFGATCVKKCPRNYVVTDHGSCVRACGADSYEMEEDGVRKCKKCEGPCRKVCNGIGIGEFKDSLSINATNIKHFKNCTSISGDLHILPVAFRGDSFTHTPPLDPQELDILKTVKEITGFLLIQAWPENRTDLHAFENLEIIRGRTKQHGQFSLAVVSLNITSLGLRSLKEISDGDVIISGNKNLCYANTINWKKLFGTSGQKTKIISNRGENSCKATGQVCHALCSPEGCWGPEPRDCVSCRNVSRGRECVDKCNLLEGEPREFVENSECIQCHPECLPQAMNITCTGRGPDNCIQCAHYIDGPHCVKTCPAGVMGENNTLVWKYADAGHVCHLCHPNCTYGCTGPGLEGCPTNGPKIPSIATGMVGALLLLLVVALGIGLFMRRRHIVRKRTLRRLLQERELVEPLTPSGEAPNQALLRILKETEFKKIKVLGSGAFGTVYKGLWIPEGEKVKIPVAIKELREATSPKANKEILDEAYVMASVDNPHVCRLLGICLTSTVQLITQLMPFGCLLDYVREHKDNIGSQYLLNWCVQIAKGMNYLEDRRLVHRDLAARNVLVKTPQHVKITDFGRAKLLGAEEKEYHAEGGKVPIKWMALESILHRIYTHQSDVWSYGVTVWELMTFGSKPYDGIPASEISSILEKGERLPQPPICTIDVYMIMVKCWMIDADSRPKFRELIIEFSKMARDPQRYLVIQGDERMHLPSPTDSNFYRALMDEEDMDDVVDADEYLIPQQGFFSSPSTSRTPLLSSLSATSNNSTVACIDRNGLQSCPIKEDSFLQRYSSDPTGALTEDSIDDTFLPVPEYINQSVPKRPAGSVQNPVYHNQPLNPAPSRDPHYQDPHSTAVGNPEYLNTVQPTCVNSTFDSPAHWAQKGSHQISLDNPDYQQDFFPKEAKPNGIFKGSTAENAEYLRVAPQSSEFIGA
Experimental: as §1, §2, §3, §4, §5, §6, §7

SMILES	GI50 (Ba/F3-FL-EGFR) [nM]	GI50 [1] [nM]	GI50 [2] [nM]	IC50 [3] [nM]	GI50 (Ba/F3-FL-EGFR-L858R) [nM]	IC50 ([3]; 72 h) [nM]
COCCS(=O)(=O)n1cc(-c2nccc(Nc3cc4c(C(C)C)ccc(N5CC(CS(C)(=O)=O)C5)c4cn3)n2)cn1 [Compound H15]	148	4.3	8.6	6.6	5.7	
CC(C)c1ccc(N2CC(CS(C)(=O)=O)C2)c2cnc(Nc3ccnc(-c4cnn(CC#N)c4)n3)cc12 [Compound H26]	1420	56	336		74	128
CC(C)c1ccc(N2CC(CS(C)(=O)=O)C2)c2cnc(Nc3ccnc(-c4cnn(S(=O)(=O)C5COC5)c4)n3)cc12 [Compound H17]	858	33	127		56	58
CC(C)c1ccc(N2CC(CS(C)(=O)=O)C2)c2cnc(Nc3ccnc(-c4cnn(S(=O)(=O)c5ccccn5)c4)n3)cc12 [Compound H16]	1360	122	652		235	264
CC(C)c1ccc(N2C[C@H](CS(C)(=O)=O)[C@H]2C)c2cnc(Nc3ccnc(-c4cnn(S(=O)(=O)N(C)C)c4)n3)cc12 [Compound H28]	595	23	68		50	48
COCCS(=O)(=O)n1cc(-c2nccc(Nc3cc4c(C(C)C)ccc(N5CC(CS(C)(=O)=O)C5)c4cn3)n2)cn1 [Compound H20]	2110	22	188	53	43	
CCCS(=O)(=O)C[C@H]1CN(c2ccc(C(C)C)c3cc(Nc4ccnc(-c5cnn(S(=O)(=O)C6CC6)c5)n4)ncc23)[C@@H]1C [Compound H34]	656	28	73		65	37
CC(C)c1ccc(N2CC(CS(C)(=O)=O)C2)c2cnc(Nc3ccnc(-c4cnn(S(=O)(=O)C5CCOC5)c4)n3)cc12 (stereo not drawn) [Compound H24]	458	12	94		42	20
CC(C)c1ccc(N2CC(CS(C)(=O)=O)C2)c2cnc(Nc3ccnc(-c4cnn(S(=O)(=O)CC5CC5)c4)n3)cc12 [Compound H14]	721	28	136		71	34
CCn1cc(-c2nccc(Nc3cc4c(C(C)C)ccc(N5CC(CS(C)(=O)=O)C5)c4cn3)n2)cn1 [Compound H27]	> 10000	21	322		49	53
CC(C)c1ccc(N2CC(N(C)S(C)(=O)=O)C2)c2cnc(Nc3ccnc(-c4cnn(S(=O)(=O)C5CC5)c4)n3)cc12 [Compound H25]	208	9.6	26		14	11
CCCS(=O)(=O)N(C)[C@H]1CN(c2ccc(C(C)C)c3cc(Nc4ccnc(-c5cnn(S(=O)(=O)C6CC6)c5)n4)ncc23)[C@@H]1C [Compound H33]	202	5.9	13		14	7.1
CC(C)OCCS(=O)(=O)n1cc(-c2nccc(Nc3cc4c(C(C)C)ccc(N5C[C@H](CS(C)(=O)=O)[C@H]5C)c4cn3)n2)cn1 [Compound H32]	3290	226	397		510	340
CC(C)c1ccc(N2C[C@H](CS(C)(=O)=O)[C@H]2C)c2cnc(Nc3ccnc(-c4cnn(S(=O)(=O)CCOC5CC5)c4)n3)cc12 [Compound H31]	503	55	64		50	39

Continued, values first:

GI50 (Ba/F3-FL-EGFR) [nM]	GI50 [1] [nM]	GI50 [2] [nM]	IC50 [3] [nM]	GI50 (Ba/F3-FL-EGFR-L858R) [nM]	IC50 ([3]; 72 h) [nM]	SMILES
775	10	6.7		21	110	CCS(=O)(=O)N[C@H]1CN(c2ccc(C(C)C)c3cc(Nc4ccnc(N5CCC(OC)C(F)C5)n4)ncc23)[C@@H]1C (stereo partly drawn) [Compound P44]
761	6.6	5.8		16	90	[2H]C([2H])([2H])N([C@H]1CN(c2ccc(C(C)C)c3cc(Nc4ccnc(N5CCC(OC)C(F)C5)n4)ncc23)[C@@H]1C)S(C)(=O)=O (stereo partly drawn) [Compound P42]
903	83	78		206	234	CC(C)c1ccc(N2CC(N3CCCS3(=O)=O)C2)c2cnc(Nc3ccnc(N4CCC(O)C(F)C4)n3)cc12 (stereo not drawn) [Compound P34]
421	5.8	2.5		20	53	CO[C@@H]1CCN(c2nccc(Nc3cc4c(C(C)C)ccc(N5C[C@H](N(C)S(C)(=O)=O)[C@H]5C)c4cn3)n2)C[C@@H]1F [Compound P40a]
6620	542	720		1890	3510	COC1CCN(c2nccc(Nc3cc4c(C(C)C)ccc(N5CC(N(C)S(=O)(=O)C(F)(F)F)C5)c4cn3)n2)CC1F (stereo not drawn) [Compound P50]
1610	38	42		113	179	CCS(=O)(=O)NC1CN(c2ccc(C(C)C)c3cc(Nc4ccnc(N5CCC(O)C(F)C5)n4)ncc23)C1 (stereo not drawn) [Compound P47]
8760	1690	1660		2520	3120	CC(=O)NC1CN(c2ccc(C(C)C)c3cc(Nc4ccnc(N5CCC(O)C(F)C5)n4)ncc23)C1 (stereo not drawn) [Compound P35]
565	16	8.9		22	123	CCCS(=O)(=O)N[C@H]1CN(c2ccc(C(C)C)c3cc(Nc4ccnc(N5CCC(OC)C(F)C5)n4)ncc23)[C@@H]1C (stereo partly drawn) [Compound P32]
760	16	14		24	60	CC(C)c1ccc(N2CC(N(C)S(C)(=O)=O)C2)c2cnc(Nc3ccnc(N4CC[C@H](O)[C@H](F)C4)n3)cc12 [Compound P39b]
1070	36	38		121	316	COCCS(=O)(=O)N(C)C1CN(c2ccc(C(C)C)c3cc(Nc4ccnc(N5CCC(OC)C(F)C5)n4)ncc23)C1 (stereo not drawn) [Compound P49]
1460	19	18		86	295	CCN(C1CN(c2ccc(C(C)C)c3cc(Nc4ccnc(N5CCC(OC)C(F)C5)n4)ncc23)C1)S(C)(=O)=O (stereo not drawn) [Compound P31]
1170	29	31		76	144	CCCS(=O)(=O)NC1CN(c2ccc(C(C)C)c3cc(Nc4ccnc(N5CCC(O)C(F)C5)n4)ncc23)C1 (stereo not drawn) [Compound P48]
1140	33	34		83	339	COC1CCN(c2nccc(Nc3cc4c(C(C)C)ccc(N5CC(NS(=O)(=O)C6COC6)C5)c4cn3)n2)CC1F (stereo not drawn) [Compound P37]
2200	74	64		169	226	CC(C)c1ccc(N2CC(NS(=O)(=O)N(C)C)C2)c2cnc(Nc3ccnc(N4CCC(O)C(F)C4)n3)cc12 (stereo not drawn) [Compound P27]
593	9.8	5.6		36	142	CCS(=O)(=O)N(C)[C@H]1CN(c2ccc(C(C)C)c3cc(Nc4ccnc(N5CCC(OC)C(F)C5)n4)ncc23)[C@@H]1C (stereo partly drawn) [Compound P43]
540	7	5.4		15	76	COC1CCN(c2nccc(Nc3cc4c(C(C)C)ccc(N5C[C@H](NS(C)(=O)=O)[C@H]5C)c4cn3)n2)CC1F (stereo partly drawn) [Compound P38]
